Experiments:
[1] = target: Tyrosine-protein kinase Srms (Homo sapiens) (UniProt Q9H3Y6); details: Compound concentration 1000.0 nM
[2] = test system: Proto-oncogene tyrosine-protein kinase receptor Ret (Homo sapiens), P07949 [M918T]; details: Compound concentration 1000.0 nM
[3] = test system: Epidermal growth factor receptor (Homo sapiens), P00533 [T790M]; details: Compound concentration 1000.0 nM
[4] = target: Membrane-associated tyrosine- and threonine-specific cdc2-inhibitory kinase (Homo sapiens) (UniProt Q99640); details: Compound concentration 1000.0 nM
[5] = target: Casein kinase I isoform alpha-like (Homo sapiens) (UniProt Q8N752); details: Compound concentration 1000.0 nM
[6] = target: Vasopressin V1a receptor (Homo sapiens) (UniProt P37288); test: V1a (h) CEREP ligand profiling; details: filed as agonist, Compound concentration 10.0 uM
[7] = target: Mitogen-activated protein kinase kinase kinase 11 (Homo sapiens) (UniProt Q16584); details: Compound concentration 1000.0 nM
[8] = target: Serine/threonine-protein kinase PAK 4 (Homo sapiens) (UniProt O96013); details: Compound concentration 1000.0 nM
[9] = target: Muscarinic acetylcholine receptor M3 (Homo sapiens) (UniProt P20309); test: M3 (h) CEREP ligand profiling; details: filed as antagonist, Compound concentration 10.0 uM
[10] = target: Phosphatidylinositol 4,5-bisphosphate 3-kinase catalytic subunit beta isoform (Homo sapiens) (UniProt P42338); details: Compound concentration 1000.0 nM
[11] = target: Serine/threonine-protein kinase 26 (Homo sapiens) (UniProt Q9P289); details: Compound concentration 1000.0 nM
[12] = target: Activated CDC42 kinase 1 (Homo sapiens) (UniProt Q07912); details: Compound concentration 1000.0 nM
[13] = target: T1, Muscarinic acetylcholine receptor M5 (Homo sapiens) (UniProt P08912); test: M5 (h) CEREP ligand profiling; details: filed as antagonist, Compound concentration 10.0 uM
T1 sequence (whole entry): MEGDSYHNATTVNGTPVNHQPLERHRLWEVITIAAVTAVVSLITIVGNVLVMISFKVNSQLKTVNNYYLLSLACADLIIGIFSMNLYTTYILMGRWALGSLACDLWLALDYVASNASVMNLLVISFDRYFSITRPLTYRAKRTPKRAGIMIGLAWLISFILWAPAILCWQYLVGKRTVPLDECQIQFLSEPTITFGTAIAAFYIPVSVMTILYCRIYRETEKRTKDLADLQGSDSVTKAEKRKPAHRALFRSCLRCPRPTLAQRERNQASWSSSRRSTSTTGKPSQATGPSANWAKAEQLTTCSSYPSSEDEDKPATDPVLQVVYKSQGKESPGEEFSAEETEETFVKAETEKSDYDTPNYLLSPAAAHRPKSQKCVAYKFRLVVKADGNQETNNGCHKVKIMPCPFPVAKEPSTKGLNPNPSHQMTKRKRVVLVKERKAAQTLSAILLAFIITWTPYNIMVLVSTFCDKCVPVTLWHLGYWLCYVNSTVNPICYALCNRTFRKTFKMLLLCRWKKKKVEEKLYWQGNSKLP

[14] = target: Phosphatidylinositol 3-kinase catalytic subunit type 3 (Homo sapiens) (UniProt Q8NEB9); details: Compound concentration 1000.0 nM
[15] = target: Protein kinase C eta type (Homo sapiens) (UniProt P24723); details: Compound concentration 1000.0 nM
[16] = target: Prostaglandin E2 receptor EP2 subtype (Homo sapiens) (UniProt P43116); test: EP2 (h) CEREP ligand profiling; details: filed as agonist, Compound concentration 10.0 uM
[17] = target: Receptor tyrosine-protein kinase erbB-2 (Homo sapiens) (UniProt P04626); details: Compound concentration 1000.0 nM
[18] = target: T2, 5-hydroxytryptamine receptor 2C (Homo sapiens) (UniProt P28335); test: 5-HT2C (h) CEREP ligand profiling; details: filed as antagonist, Compound concentration 10.0 uM
T2 sequence (whole entry): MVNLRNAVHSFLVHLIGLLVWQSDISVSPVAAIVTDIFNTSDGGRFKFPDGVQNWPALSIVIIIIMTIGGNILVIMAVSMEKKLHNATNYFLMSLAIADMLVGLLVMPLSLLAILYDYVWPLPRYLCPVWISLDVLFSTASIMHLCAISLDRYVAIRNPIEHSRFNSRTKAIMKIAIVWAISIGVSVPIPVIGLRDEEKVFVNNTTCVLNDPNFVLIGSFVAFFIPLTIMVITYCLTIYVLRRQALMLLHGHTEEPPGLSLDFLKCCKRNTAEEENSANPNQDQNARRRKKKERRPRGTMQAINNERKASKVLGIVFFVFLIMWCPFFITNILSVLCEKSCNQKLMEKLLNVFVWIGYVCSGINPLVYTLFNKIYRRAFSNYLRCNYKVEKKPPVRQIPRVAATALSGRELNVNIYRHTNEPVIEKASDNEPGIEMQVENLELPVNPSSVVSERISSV

[19] = target: Hormonally up-regulated neu tumor-associated kinase (Homo sapiens) (UniProt P57058); details: Compound concentration 1000.0 nM
[20] = target: Serine/threonine-protein kinase/endoribonuclease IRE1 (Homo sapiens) (UniProt O75460); details: Compound concentration 1000.0 nM
[21] = target: Serine/threonine-protein kinase Nek9 (Homo sapiens) (UniProt Q8TD19); details: Compound concentration 1000.0 nM
[22] = target: Activin receptor type-1-like (Homo sapiens) (UniProt P37023); details: Compound concentration 1000.0 nM
[23] = target: Sodium-dependent noradrenaline transporter (Homo sapiens) (UniProt P23975); test: norepinephrine transporter (h) CEREP ligand profiling; details: filed as antagonist, Compound concentration 10.0 uM
[24] = target: MAP/microtubule affinity-regulating kinase 3 (Homo sapiens) (UniProt P27448); details: Compound concentration 1000.0 nM
[25] = target: Cyclin-dependent kinase 3 (Homo sapiens) (UniProt Q00526); details: Compound concentration 1000.0 nM
[26] = target: 5-hydroxytryptamine receptor 6 (Homo sapiens) (UniProt P50406); details: Compound concentration 10.0 uM
[27] = target: Protein-tyrosine kinase 6 (Homo sapiens) (UniProt Q13882); details: Compound concentration 1000.0 nM
[28] = target: Serine/threonine-protein kinase Sgk1 (Homo sapiens) (UniProt O00141); details: Compound concentration 1000.0 nM
[29] = target: Myosin light chain kinase 2, skeletal/cardiac muscle (Homo sapiens) (UniProt Q9H1R3); details: Compound concentration 1000.0 nM
[30] = target: Ribosomal protein S6 kinase alpha-1 (Homo sapiens) (UniProt Q15418); details: Compound concentration 1000.0 nM
[31] = target: Serine/threonine-protein kinase ULK1 (Homo sapiens) (UniProt O75385); details: Compound concentration 1000.0 nM

Protein-tyrosine kinase 6 (Homo sapiens), sequence (Q13882 whole entry, looked up): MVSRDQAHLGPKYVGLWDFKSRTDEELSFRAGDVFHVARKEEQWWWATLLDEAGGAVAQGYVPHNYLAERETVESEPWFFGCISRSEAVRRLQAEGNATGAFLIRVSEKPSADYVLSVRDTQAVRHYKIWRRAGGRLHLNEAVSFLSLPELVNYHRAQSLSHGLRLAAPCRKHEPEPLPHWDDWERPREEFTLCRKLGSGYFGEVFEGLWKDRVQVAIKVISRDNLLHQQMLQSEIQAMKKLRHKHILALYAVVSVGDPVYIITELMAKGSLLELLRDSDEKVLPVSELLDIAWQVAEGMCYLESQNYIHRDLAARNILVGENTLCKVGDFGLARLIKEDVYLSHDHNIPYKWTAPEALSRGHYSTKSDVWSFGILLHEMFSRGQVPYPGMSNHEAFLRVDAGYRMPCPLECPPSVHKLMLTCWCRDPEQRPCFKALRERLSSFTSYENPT
Serine/threonine-protein kinase 26 (Homo sapiens), sequence (Q9P289 2-416 limits assumed): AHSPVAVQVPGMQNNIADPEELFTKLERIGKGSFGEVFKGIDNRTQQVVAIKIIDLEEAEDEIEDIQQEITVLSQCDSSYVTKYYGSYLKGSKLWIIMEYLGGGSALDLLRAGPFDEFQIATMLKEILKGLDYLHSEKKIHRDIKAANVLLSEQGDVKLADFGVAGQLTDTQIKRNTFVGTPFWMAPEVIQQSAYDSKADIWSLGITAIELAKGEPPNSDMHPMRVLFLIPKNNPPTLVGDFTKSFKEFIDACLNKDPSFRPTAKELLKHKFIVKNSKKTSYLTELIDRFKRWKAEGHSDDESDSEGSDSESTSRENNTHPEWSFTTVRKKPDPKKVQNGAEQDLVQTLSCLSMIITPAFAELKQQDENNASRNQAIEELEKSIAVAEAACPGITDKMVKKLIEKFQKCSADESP
Prostaglandin E2 receptor EP2 subtype (Homo sapiens), sequence (P43116 whole entry): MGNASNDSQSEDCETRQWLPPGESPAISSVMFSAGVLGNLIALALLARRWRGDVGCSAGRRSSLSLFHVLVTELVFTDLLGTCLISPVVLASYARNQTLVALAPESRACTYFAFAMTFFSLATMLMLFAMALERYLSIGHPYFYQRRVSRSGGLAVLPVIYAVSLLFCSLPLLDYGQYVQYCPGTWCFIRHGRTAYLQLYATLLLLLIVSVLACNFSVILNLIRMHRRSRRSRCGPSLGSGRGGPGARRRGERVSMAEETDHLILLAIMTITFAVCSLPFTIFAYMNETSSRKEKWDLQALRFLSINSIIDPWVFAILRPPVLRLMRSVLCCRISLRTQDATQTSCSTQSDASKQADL
Muscarinic acetylcholine receptor M3 (Homo sapiens), sequence (P20309 whole entry, looked up, canonical isoform): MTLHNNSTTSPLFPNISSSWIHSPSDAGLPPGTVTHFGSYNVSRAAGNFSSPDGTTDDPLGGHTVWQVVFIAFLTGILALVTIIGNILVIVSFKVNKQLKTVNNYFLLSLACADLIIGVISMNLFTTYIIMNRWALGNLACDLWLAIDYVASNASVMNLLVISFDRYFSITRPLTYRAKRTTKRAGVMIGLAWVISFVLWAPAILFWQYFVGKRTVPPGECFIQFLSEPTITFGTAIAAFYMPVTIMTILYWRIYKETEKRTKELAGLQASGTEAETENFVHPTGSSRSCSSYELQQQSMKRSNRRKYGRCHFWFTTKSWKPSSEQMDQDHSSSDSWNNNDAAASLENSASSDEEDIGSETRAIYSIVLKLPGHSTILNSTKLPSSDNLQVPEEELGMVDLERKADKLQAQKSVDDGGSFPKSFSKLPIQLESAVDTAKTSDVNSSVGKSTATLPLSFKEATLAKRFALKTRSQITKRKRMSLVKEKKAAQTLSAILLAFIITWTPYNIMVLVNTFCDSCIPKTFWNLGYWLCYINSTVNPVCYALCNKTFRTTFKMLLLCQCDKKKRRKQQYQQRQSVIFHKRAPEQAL
Serine/threonine-protein kinase/endoribonuclease IRE1 (Homo sapiens), sequence (O75460 19-977 limits assumed): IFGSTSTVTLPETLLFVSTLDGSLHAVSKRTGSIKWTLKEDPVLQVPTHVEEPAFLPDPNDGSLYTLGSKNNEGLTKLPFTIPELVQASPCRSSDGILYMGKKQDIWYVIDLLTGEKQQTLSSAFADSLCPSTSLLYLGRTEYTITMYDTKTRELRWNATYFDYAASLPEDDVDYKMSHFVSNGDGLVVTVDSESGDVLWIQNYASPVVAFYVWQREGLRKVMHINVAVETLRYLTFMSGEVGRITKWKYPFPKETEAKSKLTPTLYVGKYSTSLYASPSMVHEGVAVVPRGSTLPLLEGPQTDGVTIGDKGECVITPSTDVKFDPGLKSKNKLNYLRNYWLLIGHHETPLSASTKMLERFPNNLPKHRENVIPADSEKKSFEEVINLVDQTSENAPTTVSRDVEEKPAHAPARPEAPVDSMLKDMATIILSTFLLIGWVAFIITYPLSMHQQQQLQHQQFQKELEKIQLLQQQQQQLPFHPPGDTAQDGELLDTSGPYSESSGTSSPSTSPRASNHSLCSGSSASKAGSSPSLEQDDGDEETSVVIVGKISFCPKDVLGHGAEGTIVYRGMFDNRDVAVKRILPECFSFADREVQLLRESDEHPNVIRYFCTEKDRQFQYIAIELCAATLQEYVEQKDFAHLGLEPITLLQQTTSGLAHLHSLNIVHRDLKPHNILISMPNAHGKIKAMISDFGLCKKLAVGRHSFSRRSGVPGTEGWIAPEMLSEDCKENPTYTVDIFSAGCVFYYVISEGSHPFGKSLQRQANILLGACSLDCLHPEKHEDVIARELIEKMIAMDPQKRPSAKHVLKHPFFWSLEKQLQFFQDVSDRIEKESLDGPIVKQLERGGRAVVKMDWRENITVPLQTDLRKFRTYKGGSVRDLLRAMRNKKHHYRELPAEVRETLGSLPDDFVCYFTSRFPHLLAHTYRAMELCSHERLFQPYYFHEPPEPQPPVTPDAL
MAP/microtubule affinity-regulating kinase 3 (Homo sapiens), sequence (P27448 whole entry, looked up): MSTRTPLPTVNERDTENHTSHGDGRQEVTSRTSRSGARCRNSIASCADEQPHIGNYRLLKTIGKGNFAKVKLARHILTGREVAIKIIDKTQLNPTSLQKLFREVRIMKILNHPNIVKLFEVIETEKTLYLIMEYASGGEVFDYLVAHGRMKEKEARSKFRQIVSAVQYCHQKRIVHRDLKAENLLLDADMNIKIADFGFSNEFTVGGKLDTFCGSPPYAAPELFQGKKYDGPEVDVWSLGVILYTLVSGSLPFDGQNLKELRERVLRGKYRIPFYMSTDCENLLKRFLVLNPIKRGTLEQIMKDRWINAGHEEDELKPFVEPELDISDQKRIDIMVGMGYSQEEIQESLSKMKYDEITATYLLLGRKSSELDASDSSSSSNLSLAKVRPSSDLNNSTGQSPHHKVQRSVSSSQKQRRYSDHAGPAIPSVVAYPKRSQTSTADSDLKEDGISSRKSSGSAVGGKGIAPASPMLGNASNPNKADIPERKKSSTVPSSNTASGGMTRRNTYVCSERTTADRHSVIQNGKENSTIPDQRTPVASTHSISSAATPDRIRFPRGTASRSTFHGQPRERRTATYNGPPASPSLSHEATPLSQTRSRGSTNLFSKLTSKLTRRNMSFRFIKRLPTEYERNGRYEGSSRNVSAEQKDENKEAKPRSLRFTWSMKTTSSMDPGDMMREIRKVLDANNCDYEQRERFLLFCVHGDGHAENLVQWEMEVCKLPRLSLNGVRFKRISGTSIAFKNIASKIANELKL
Myosin light chain kinase 2, skeletal/cardiac muscle (Homo sapiens), sequence (Q9H1R3 whole entry): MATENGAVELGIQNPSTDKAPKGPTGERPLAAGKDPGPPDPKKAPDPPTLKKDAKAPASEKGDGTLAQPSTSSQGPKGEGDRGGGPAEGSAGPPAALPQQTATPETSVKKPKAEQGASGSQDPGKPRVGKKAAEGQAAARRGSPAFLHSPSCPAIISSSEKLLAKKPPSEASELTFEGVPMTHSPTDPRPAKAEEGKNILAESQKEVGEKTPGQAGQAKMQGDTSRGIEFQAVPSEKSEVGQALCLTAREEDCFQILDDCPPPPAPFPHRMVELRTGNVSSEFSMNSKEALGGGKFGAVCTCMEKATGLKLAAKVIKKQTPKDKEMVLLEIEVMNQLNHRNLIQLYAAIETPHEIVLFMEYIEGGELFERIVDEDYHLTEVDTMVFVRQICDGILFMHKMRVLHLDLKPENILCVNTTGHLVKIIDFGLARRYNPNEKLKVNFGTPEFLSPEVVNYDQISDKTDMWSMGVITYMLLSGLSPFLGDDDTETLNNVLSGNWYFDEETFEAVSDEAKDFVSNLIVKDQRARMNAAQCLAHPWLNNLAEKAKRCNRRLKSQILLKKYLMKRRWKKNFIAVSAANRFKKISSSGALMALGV
Activin receptor type-1-like (Homo sapiens), sequence (P37023 whole entry): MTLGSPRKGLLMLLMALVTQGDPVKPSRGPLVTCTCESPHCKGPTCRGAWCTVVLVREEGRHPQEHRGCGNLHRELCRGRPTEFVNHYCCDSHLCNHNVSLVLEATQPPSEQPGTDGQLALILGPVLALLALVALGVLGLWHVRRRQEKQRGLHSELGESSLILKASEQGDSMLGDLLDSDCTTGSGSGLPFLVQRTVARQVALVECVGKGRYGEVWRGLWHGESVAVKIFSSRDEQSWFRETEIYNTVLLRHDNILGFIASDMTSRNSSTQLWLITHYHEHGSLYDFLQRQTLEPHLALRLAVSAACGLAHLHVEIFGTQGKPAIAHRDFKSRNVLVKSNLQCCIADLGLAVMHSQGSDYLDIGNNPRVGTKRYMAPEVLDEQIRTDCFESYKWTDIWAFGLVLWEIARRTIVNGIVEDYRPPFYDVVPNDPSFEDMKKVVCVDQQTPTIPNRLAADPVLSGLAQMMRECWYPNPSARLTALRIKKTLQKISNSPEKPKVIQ
Cyclin-dependent kinase 3 (Homo sapiens), sequence (Q00526 whole entry, looked up): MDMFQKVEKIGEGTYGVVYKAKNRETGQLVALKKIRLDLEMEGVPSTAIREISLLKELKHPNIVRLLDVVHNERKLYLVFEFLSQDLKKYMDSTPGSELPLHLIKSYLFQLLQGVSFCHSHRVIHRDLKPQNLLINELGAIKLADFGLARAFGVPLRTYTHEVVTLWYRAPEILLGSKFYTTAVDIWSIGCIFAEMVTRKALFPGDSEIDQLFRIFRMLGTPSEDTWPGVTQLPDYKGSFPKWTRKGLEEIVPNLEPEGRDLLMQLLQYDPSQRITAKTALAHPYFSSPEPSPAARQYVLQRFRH

CNC(=O)Nc1ccc2c(c1)CC[C@@]21OC(=O)N(CC(=O)N(Cc2ccc(F)cc2)[C@@H](C)C(F)(F)F)C1=O [A-485]
inactive: residual activity [1] 83% | residual activity [2] 95% | residual activity [3] 73% | residual activity [4] 74% | residual activity [5] 88% | inhibition [6] 10% | residual activity [7] 73% | residual activity [8] 89% | inhibition [9] -5% | residual activity [10] 94% | residual activity [11] 90% | residual activity [12] 90% | inhibition [13] 8% | residual activity [14] 88% | residual activity [15] 93% | inhibition [16] 27% | residual activity [17] 100% | inhibition [18] -2% | residual activity [19] 100% | residual activity [20] 56% | residual activity [21] 78% | residual activity [22] 72% | inhibition [23] 12% | residual activity [24] 100% | residual activity [25] 100% | inhibition [26] 32.6% | residual activity [27] 87% | residual activity [28] 63% | residual activity [29] 84% | residual activity [30] 86% | residual activity [31] 70%

CNC(=O)Nc1ccc2c(c1)[C@@]1(CC2)OC(=O)N(CC(=O)N(Cc2ccc(F)cc2)[C@@H](C)C(F)(F)F)C1=O [A-486]
inactive: residual activity [1] 88% | residual activity [2] 100% | residual activity [3] 73% | residual activity [4] 92% | residual activity [5] 100% | inhibition [6] 23% | residual activity [7] 91% | residual activity [8] 95% | inhibition [9] 0% | residual activity [10] 97% | residual activity [11] 100% | residual activity [12] 87% | inhibition [13] -8% | residual activity [14] 96% | residual activity [15] 87% | inhibition [16] 10% | residual activity [17] 98% | inhibition [18] -7% | residual activity [19] 100% | residual activity [20] 100% | residual activity [21] 95% | residual activity [22] 78% | inhibition [23] 4% | residual activity [24] 100% | residual activity [25] 100% | inhibition [26] 24.1% | residual activity [27] 90% | residual activity [28] 54% | residual activity [29] 77% | residual activity [30] 96% | residual activity [31] 64%

— ChEMBL document CHEMBL4507259 (2021)
